Where “and” joins values, the source holds several entries; their conditions need not be identical. Identical values can stand only once. Like-named read-outs stand apart in the source and are kept apart here.
Experiments:
[1] = Microsome stability and metabolism studies, human; type: in vitro ADME; set-up: key: +: Metabolic Products Detected In Vitro and In Vivo; ND: Not detectable; settings: (−)-AM1 1 μM, at 30 min
Method: Samples from the metabolic stability and metabolism studies were analyzed under the following conditions: UPLC interfaced with a Premiere XE triple Quadrupole Waters for stability studies, and Bruker Daltonics Ion Trap HCT Ultra for metabolic studies. A gradient from 2% to 100% (Water, MeOH, 5 mM Ammonium Acetate) over 2 min (stability) or 12 min (metabolism) in a C18 BEH (dimensions 1 by 50 mm for stability and 2.1 by 100 mm for metabolism, 1.7 µm column, 45 °C temperature, flow rate 0.5 mL/min) was used. […]
For stability and metabolism studies, test compounds were dissolved in DMSO, diluted at the final concentration of 1 µM, and pre-incubated in duplicate for 10 min at 37 °C in potassium phosphate buffer, pH 7.4, 3 mM MgCl2, with rat, mouse, and human hepatic microsomes (Xenotech Europe, Pfungstadt, Germany) at the final concentration of 0.5 mg/mL. […] Samples were then centrifuged and the supernatants analysed and quantified by LC-MS/MS. […]
(§1) The percentage of the area of test compounds remaining after 30 min incubation was calculated in respect to the area of compounds at time = 0 min. […] Samples were re-analyzed by acquiring the daughter scan of the potential metabolites found during the full scan acquisition.

[2] = Microsome stability and metabolism studies, mouse; type: in vitro ADME; set-up: key: +: Metabolic Products Detected In Vitro and In Vivo; ND: Not detectable; settings: (−)-AM1 1 μM, at 30 min
Method: (§2) Samples from the metabolic stability and metabolism studies were analyzed under the following conditions: UPLC interfaced with a Premiere XE triple Quadrupole Waters for stability studies, and Bruker Daltonics Ion Trap HCT Ultra for metabolic studies. A gradient from 2% to 100% (Water, MeOH, 5 mM Ammonium Acetate) over 2 min (stability) or 12 min (metabolism) in a C18 BEH (dimensions 1 by 50 mm for stability and 2.1 by 100 mm for metabolism, 1.7 µm column, 45 °C temperature, flow rate 0.5 mL/min) was used. For stability studies, the detection was performed in MRM (ESI positive, Q1/Q3 330.16/152.00, Cone Voltage 45 V; Extractor 5 V; Capillary 3.4 kV), while for metabolism studies, analysis was performed in Auto MS/MS mode (ESI positive; Capillary 109 V; Dry Temp 350 °C; Nebulizer 30 psi; Dry gas 10 L/min; HV capillary 500 V; Mass Accu time 500 µs; Mass range MS scan 100–600 amu, MS/MS 50–450 amu).
(§3) For stability and metabolism studies, test compounds were dissolved in DMSO, diluted at the final concentration of 1 µM, and pre-incubated in duplicate for 10 min at 37 °C in potassium phosphate buffer, pH 7.4, 3 mM MgCl2, with rat, mouse, and human hepatic microsomes (Xenotech Europe, Pfungstadt, Germany) at the final concentration of 0.5 mg/mL. The reaction was then started by adding the cofactor mixture of NADP, Glc6P, and G6P-DH, in the presence of UDPGA 1 mM in human microsomes to promote glucuronide formation. Acetonitrile (with verapamil as internal standard) was added to the samples at the times time 0 and 30 min to stop the reaction. Samples were then centrifuged and the supernatants analysed and quantified by LC-MS/MS. Reference compounds of known metabolic stability, 7-ethoxycoumarin (7-EC) and propranolol, were used as controls.
as §1

[3] = Microsome stability and metabolism studies, rat; type: in vitro ADME; set-up: key: +: Metabolic Products Detected In Vitro and In Vivo; ND: Not detectable; settings: (−)-AM1 1 μM, at 30 min
Method: as §2, §3, §1

[4] = biological target: T1, hERG (Homo sapiens, UniProt Q12809); experiment: hERG [3H]-astemizole radioligand binding assay; settings: HEK293 cell membranes, preliminary experiments
T1 construct: expressed in transfected cells
T1 sequence (Q12809 whole entry): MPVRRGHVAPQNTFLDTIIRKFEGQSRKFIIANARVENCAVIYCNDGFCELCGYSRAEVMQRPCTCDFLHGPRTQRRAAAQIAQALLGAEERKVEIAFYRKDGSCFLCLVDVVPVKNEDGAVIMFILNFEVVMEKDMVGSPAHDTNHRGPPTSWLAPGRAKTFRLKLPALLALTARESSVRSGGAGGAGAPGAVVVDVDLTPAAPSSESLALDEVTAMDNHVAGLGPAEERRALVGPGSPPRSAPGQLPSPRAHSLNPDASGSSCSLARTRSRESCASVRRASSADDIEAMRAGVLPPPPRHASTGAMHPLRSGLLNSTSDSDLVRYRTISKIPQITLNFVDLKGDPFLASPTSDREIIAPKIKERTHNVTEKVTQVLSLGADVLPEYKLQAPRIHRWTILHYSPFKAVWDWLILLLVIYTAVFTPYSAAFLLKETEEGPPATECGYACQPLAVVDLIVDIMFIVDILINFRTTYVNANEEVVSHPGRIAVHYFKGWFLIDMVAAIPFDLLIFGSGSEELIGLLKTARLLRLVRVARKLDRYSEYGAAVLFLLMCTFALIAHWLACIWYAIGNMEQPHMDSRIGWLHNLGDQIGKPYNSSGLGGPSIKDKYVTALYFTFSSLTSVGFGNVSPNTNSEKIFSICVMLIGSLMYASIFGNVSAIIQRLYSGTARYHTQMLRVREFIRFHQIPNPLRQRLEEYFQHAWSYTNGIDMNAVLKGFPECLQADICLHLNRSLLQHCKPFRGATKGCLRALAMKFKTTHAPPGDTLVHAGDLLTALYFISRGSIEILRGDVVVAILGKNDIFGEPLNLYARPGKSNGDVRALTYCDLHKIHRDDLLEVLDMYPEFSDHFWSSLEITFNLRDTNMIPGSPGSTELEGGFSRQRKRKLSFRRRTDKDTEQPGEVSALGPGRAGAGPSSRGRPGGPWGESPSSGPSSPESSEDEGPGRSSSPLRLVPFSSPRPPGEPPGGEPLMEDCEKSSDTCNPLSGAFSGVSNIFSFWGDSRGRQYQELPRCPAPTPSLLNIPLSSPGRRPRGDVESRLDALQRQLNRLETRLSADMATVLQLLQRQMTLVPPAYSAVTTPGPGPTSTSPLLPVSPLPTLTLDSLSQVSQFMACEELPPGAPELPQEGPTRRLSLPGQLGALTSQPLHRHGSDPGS
Method: [^3H]-astemizole (PerkinElmer ITALIA Spa, Milan, Italy) radioligand binding assays were performed in HEK293 cells membranes stably transfected with the hERG (U04270); non-specific binding was evaluated in the presence of an excess of 10 µM cold astemizole. Experiments were performed at 22 °C for 60 min in triplicate and compounds tested in a range from 0.03 µM to 30 µM. Two separate experiments were performed and data analyzed with non-linear fitting using a four-parameter logistic.

[5] = tested on: P. falciparum W-2 (CQ-R); set-up: method as in PMID 22901673; settings: 72 h incubation, pLDH method, mean of 3 experiments; data already published; cited from earlier work
[6] = tested on: P. falciparum D10 (CQ-S); set-up: method as in PMID 22901673; settings: 72 h incubation, pLDH method, mean of 3 experiments; data already published; cited from earlier work
[7] = tested on: P. vivax field isolates; experiment: In vitro assay against P. vivax field isolates; type: cell-based; settings: for IC50: read-out: P. vivax IC50, field isolates
Excerpt: Ten P. vivax isolates were collected from June to July 2010 from malaria patients attending the Shoklo Malaria Research Unit (SMRU) clinics, Mae Sot region of the Tak Province in north-western Thailand under the ethical guidelines in the approved protocol OXTREC 027-05 (Centre for Clinical Vaccinology and Tropical Medicine, University of Oxford, Oxford, UK). These samples were collected from patients with no prior antimalarial therapy and with microscopically confirmed P. vivax. After written consent, blood samples were collected by venepuncture in 5 mL volume lithium heparinized tubes, which were then transported to the laboratory at SMRU within 5 h of collection. The ten isolates were chosen for testing because the majority (>80%) of the parasites were at the mid trophozoite stage (around 20 h post invasion) and no schizonts were detected.

[8] = tested on: P. berghei ANKA; experiment: Standard four-day suppressive test, P. berghei; type: in vivo; settings: CD1 mice, oral, once a day for four days, parasitaemia on day 4
Method: Groups of five CD1 mice were inoculated i.v. with 4 × 10^6 infected erythrocytes/mice. The compound, dissolved in standard suspending formula (SSV) (0.5% sodium carboxymethylcellulose, 0.5% benzyl alcohol, 0.4% Tween 80, 0.9% NaCl), was administered orally, once a day for a period of four days, starting two hours post-infection. […] Parasitaemia was determined by microscopic examination of Giemsa-stained blood films taken on day four, processed using MICROSOFT® EXCEL spreadsheets (Microsoft Corp., Redmond, WA, USA), and expressed as percentages of inhibition from the arithmetic mean parasitaemias of each group in relation to the untreated group. ED50 and ED90 values were calculated by GraphPad Prism 6 (GraphPad Software Inc, La Jolla, CA, USA).

[9] = Pharmacokinetics in CD-1 mice after oral administration; type: in vivo, mouse; settings: CD-1 mice, 10 mg/kg oral, single dose in SSV, plasma
Method: Samples from the pharmacokinetic studies were analyzed under the following conditions: UPLC interfaced with a Premiere XE triple Quadrupole, Waters. A gradient from 2 to 100% (Water, MeOH, 5 mM Ammonium Acetate) over 1.3 min was used in Acquity HSS T3 (dimensions 2.1 by 50 mm, 1.8 µm column, 40 °C temperature, flow rate 0.5 mL/min). Detection was performed in MRM (ESI positive, Q1/Q3 330.16/152.00, Cone Voltage 45 V; Extractor 5 V; Capillary 3.4 kV). The limit of detection was 1 ng/mL. Pharmacokinetic parameters were determined by Non-Compartmental Analysis, using the linear trapezoidal rule and uniform weight.
Pharmacokinetic data were collected in mice by testing the racemate and the enantiomers at the same single dose, and vehicle-utilized for in vivo studies (see composition in paragraph 4.4). Briefly, male CD-1 mice (Charles River Laboratories) weighing 18–22 g received single dose (10 mg/kg) oral administrations of the AM1 racemate and single enantiomers, each dissolved in SSV. For each experiment, twenty-four mice/dose and three mice/time-point were used. Blood samples were collected at eight selected time-points (15, 30 and 60 min; 2, 4, 6, 8 and 24 h) under ethyl ether anaesthesia. The heparinized tubes containing blood samples were immediately placed on ice and centrifuged, and the supernatant collected and frozen at −80 °C prior to analysis. Pharmacokinetic plasma samples (spiked with internal standard) were filtered (Sirocco filter plate, Waters) under vacuum, and 5 µL analysed by LC-MS/MS.

[10] = tested on: P. falciparum FCR3 (CQ-R); experiment: In vitro chemosensitivity assay (pLDH), FCR3 strain; type: cell-based; settings: Plasmodium falciparum, FCR3, 72 h, read-out: P. falciparum IC50, FCR3
[11] = tested on: P. falciparum FCR1 (CQ-R); experiment: In vitro chemosensitivity assay (pLDH), FCR1 strain; type: cell-based; settings: Plasmodium falciparum, 72 h, read-out: P. falciparum IC50, FCR1
[12] = Maximum tolerated dose in CD1 mice; settings: CD1, mouse, in vivo, ip
[13] = tested on: P. falciparum TM91C235 (multidrug-resistant); experiment: In vitro chemosensitivity assay (pLDH), TM91C235 strain; type: cell-based; settings: Plasmodium falciparum, 72 h, read-out: P. falciparum IC50, TM91C235

Structure (SMILES)	Metabolic products detected, in vitro microsomes, human [1]	Metabolic products detected, in vitro microsomes, mouse [2]	Metabolic products detected, in vitro microsomes, rat [3]	Ki [4] [nM]	IC50 [5] [nM]	IC50 [6] [nM]	IC50 ([7]; 10 field isolates from the Thai–Burmese border, mean) [nM]	potency against P. vivax field isolates relative to CQ ([7]; 10 field isolates, times higher than CQ)	P. berghei ED50 (95% CI) [8]	P. berghei ED90 (95% CI) [8]	MRT last [9] [h]	Tmax [9] [h]	AUC last ([9]; 10 mg/kg)	IC50 ([7]; Plasmodium vivax) [nM]	IC50 [10] [nM]	IC50 [11] [nM]	MTD [12] [mg/kg]	IC50 [13] [nM]
O=C(Nc1ccnc2cc(Cl)ccc12)[C@@H]1CCCN2CCCC[C@H]12 [C00002]	+	+	+															
Clc1ccc2c(NCC3CCCN4CCCCC34)ccnc2c1 (racemic) [(±)-AM1, 7-chloro-4-(N-lupinyl)aminoquinoline]				500 to 800	35.4	16.1	29.7	about 3 times	2.77 (1.26–4.29) mg/kg	12.58 (7.69–17.46) mg/kg	3.27	0.5	19.5 min·µM and 6421 min·ng/mL					
CCN(CC)CCCC(C)Nc1ccnc2cc(Cl)ccc12 (centres unmarked) [CQ, chloroquine, reference compound]					438	23.7								86.7	113	182	50	199

Source: publication PMC6149971, “In Vivo and In Vitro Activities and ADME-Tox Profile of a Quinolizidine-Modified 4-Aminoquinoline: A Potent Anti-P. falciparum and Anti-P. vivax Blood-Stage Antimalarial” (Molecules : A Journal of Synthetic Chemistry and Natural …, 2017)
